{"source": "paper PMC7300217", "about": "“Surfactin Like Broad Spectrum Antimicrobial Lipopeptide Co-produced With Sublancin From Bacillus subtilis Strain A52: Dual Reservoir of Bioactives” (Frontiers in Microbiology, 2020)", "key": {"S. aureus MTCC 1430": {"test_system": "S. aureus MTCC 1430", "experiment": "Transmission electron microscopy of treated cells", "type": "cell-based, Staphylococcus aureus", "conditions": "2X and 5X MIC, 37°C overnight", "protocol": "The effect of peptide on cell membrane was determined by scanning electron microscopy (SEM) and transmission electron microscopy (TEM) after treatment with AMPs. For this, test strains S. aureus MTCC 1430 and C. albicans MTCC 183 were cultured to mid-log phase in respective media. The cells were harvested by centrifugation at 10,000 × g for 10 min, washed thrice with 1X PBS, and re-suspended to adjust an OD600 of 0.2. […] Following the incubation, cells were processed for SEM and TEM as described ([Raje et al., 2006]). The specimens were completely dried using freeze drier, coated with gold, and visualized under a scanning electron microscope (ZEISS, Germany). For TEM (JEOL, JEM 2100, United States), cells were treated with peptide, washed, and subjected to negative stain 0.1% sodium phosphotungstate (Sigma, United States) for visualization. Effect of A52 lipopeptide on fungal spore was observed through a phase contrast microscope (Nickon H600L, Japan)."}, "rabbit blood cells": {"test_system": "rabbit blood cells", "experiment": "Hemolysis assay", "type": "cell-based, New Zealand white rabbit", "protocol": "For hemolysis assay blood was collected from New Zealand white rabbit, centrifuged, washed three times, and resuspended in phosphate-buffered saline (PBS). Cells were counted using hemocytometer (adjusted to 2 × 10^8 cells/ml) and treated with different concentrations of peptides (between 10 and 200 μg/ml). They were incubated in a CO2 incubator for 24 h at 37°C and processed to observe release of hemoglobin as described earlier ([Singh et al., 2014]). PBS and 0.1% Triton X-100 were used as agents for 0 and 100% hemolysis, respectively."}, "F. moniliforme MTCC 158": {"test_system": "F. moniliforme MTCC 158", "experiment": "MIC against phytopathogenic fungi, 96-well microtiter plate assay", "type": "cell-based, Fusarium moniliforme", "conditions": "1 × 10^5 spores/ml in PDB, 25°C, OD600 after 48 h, triplicate", "protocol": "The antimicrobial activity was tested by well diffusion assay as mentioned earlier ([Singh et al., 2014]). Strain A52 was grown for 24 h in 500 ml of nutrient broth (NB, Hi-media, India) using 1000 ml flask and subsequently cells were removed by centrifugation (10,000 rpm for 15 min at 4°C). Supernatant was filtered through 0.22 μm filter (Millipore, United States) to obtain cell-free fermented broth (CFB) that was used for antimicrobial assay (50 μl) against various indicator strains and the activity was measured as diameter of inhibition zone. Test strains used were Staphylococcus aureus (MTCC 1430), Bacillus subtilis (MTCC 121), B. firmus (MTCC 488), B. licheniformis (MTCC 429), B. thuringiensis (MTCC 1953), Escherichia coli (MTCC 1610), Micrococcus luteus (MTCC 106), Steptococcus pyrogens (MTCC 1928), S. anginosus (MTCC 1929), S. oralis (MTCC 2696), S. mutans (MTCC 497), Candida albicans (MTCC 1637), C. albicans (MTCC 183), C. albicans (MTCC 227), C. tropicalis (MTCC 184), C. glabrata (MTCC 3019), C. haemulonii (MTCC 2766), and C. inconsplicue (MTCC 1074). The phytopathogenic fungi employed in this study were Alternaria brassicicola (MTCC 2102), Colletotrichum acutatum (MTCC 1037), and Fusarium moniliforme (MTCC 158). Clinical isolates of Candida were provided by National Culture Collection of Pathogenic Fungi (NCCPF), PGIMER, Chandigarh, India.\n(§1) The minimum inhibitory concentration (MIC) of HPLC purified peptides was evaluated by using microtiter plate dilution assay. The peptide concentration was estimated using BCA protein assay (Thermo Fisher Scientific, United States) method as described by manufacturer. […] OD was measured at 600 nm after 24 and 48 h for bacteria and yeast, respectively, using ELISA microplate reader (Thermo, United States). MIC against phytopathogenic fungi was determined using 96-well microtiter plate assay ([Kaur et al., 2016]). […] The microplates were incubated at 25°C and readings were recorded at 600 nm after 48 h. […]"}, "[1]": {"experiment": "Collapse drop assay (CDA)", "type": "physicochemical", "conditions": "5 μl of peptide (10 μg/ml) on mineral oil, observed after 1 min", "protocol": "The surfactant property of peptide was determined using the qualitative drop-collapse assay ([Youssef et al., 2004]). Mineral oil (2 μl) was added to 96-well microtiter plate and equilibrated for 24 h at 37°C. After equilibration 5 μl of purified peptides (10 μg/ml) were added to the surface of the oil and drop shape was observed after 1 min using magnifying glass. Triton X-100 and water were used as positive and negative control, respectively."}, "[2]": {"experiment": "pH stability, residual antimicrobial activity", "type": "physicochemical", "conditions": "for Residual activity (%), pH 2.0: pH 2.0 (10 mM HCl or NaOH)", "protocol": "Sensitivity of purified peptides toward temperature, pH, and non-specific proteases was confirmed by performing bioassays. The pH stability was determined by adjusting the pH 2.0–12.0 of peptide aliquots (using 10 mM HCl or NaOH) and incubating for 4 h at room temperature. Samples were neutralized to pH 7.0 before processing for antimicrobial assay. To determine temperature susceptibility, peptides were incubated at different temperatures ranging from 37 to 100°C for 1 h and 121°C for 15 min and residual antimicrobial activity was determined at RT by well diffusion assay. Proteolytic enzymes trypsin and proteinase K (Sigma, United States) were used at three different concentrations (0.1, 1.0, and 5.0 mg/ml) to observe their effect on the peptide. The enzyme solutions were prepared in 50 mM phosphate buffer (pH 7.0). All reactions were performed at 37°C for 6 h followed by deactivation of enzyme by heating the solution in boiling water for 5 min before performing the activity assay."}, "C. acutatum MTCC1037": {"test_system": "C. acutatum MTCC1037", "experiment": "MIC against phytopathogenic fungi, 96-well microtiter plate assay", "type": "cell-based, Colletotrichum acutatum", "conditions": "1 × 10^5 spores/ml in PDB, 25°C, OD600 after 48 h, triplicate", "protocol": "The antimicrobial activity was tested by well diffusion assay as mentioned earlier ([Singh et al., 2014]). Strain A52 was grown for 24 h in 500 ml of nutrient broth (NB, Hi-media, India) using 1000 ml flask and subsequently cells were removed by centrifugation (10,000 rpm for 15 min at 4°C). Supernatant was filtered through 0.22 μm filter (Millipore, United States) to obtain cell-free fermented broth (CFB) that was used for antimicrobial assay (50 μl) against various indicator strains and the activity was measured as diameter of inhibition zone. […]\nas §1, with “assay.” for “assay. The peptide concentration was estimated using BCA protein assay (Thermo Fisher Scientific, United States) method as described by manufacturer.”"}}}
{"substance": "Glu^1-Leu/Ile^2-Leu^3-Val^4-Asp^5-Leu^6-Leu/Ile^7 and a β-OH hexadecane fatty acid chain (lariat or depsi) [Lipopeptide A52, cyclic surfactin-like lipopeptide, 7 amino acids and C16 β-hydroxy fatty acid, 1061.9 Da, from B. subtilis strain A52]", "values": [{"measurement": "cell morphology in TEM images", "setting": "S. aureus MTCC 1430", "value": "wall rupturing and cellular lysis"}, {"measurement": "hemolytic activity", "setting": "rabbit blood cells", "value": "demonstrated hemolytic activity"}, {"measurement": "MIC value, F. moniliforme MTCC 158", "setting": "F. moniliforme MTCC 158", "value": 20, "unit": "µg/mL"}, {"measurement": "drop collapse (surfactant property)", "setting": "[1]", "value": "positive"}, {"measurement": "Residual activity (%), pH 2.0", "setting": "[2]; 4h/ 25°C, neutralized to pH 7.0 before antimicrobial assay, listed as Lipopeptide", "value": "Nil"}, {"measurement": "Residual activity (%), pH 2.0", "setting": "[2]; 4h/ 25°C, neutralized to pH 7.0 before antimicrobial assay, listed as surfactin-like lipopeptide", "value": "complete loss in activity"}, {"measurement": "Residual activity (%), pH 4.0", "setting": "[2]; pH 4.0 (10 mM HCl or NaOH), 4h/ 25°C, neutralized to pH 7.0 before antimicrobial assay", "value": 100, "unit": "%"}, {"measurement": "Residual activity (%), pH 6.0", "setting": "[2]; pH 6.0 (10 mM HCl or NaOH), 4h/ 25°C, neutralized to pH 7.0 before antimicrobial assay", "value": 100, "unit": "%"}, {"measurement": "Residual activity (%), pH 7.0", "setting": "[2]; pH 7.0, 4h/ 25°C", "value": 100, "unit": "%"}, {"measurement": "Residual activity (%), pH 8.0", "setting": "[2]; pH 8.0 (10 mM HCl or NaOH), 4h/ 25°C, neutralized to pH 7.0 before antimicrobial assay", "value": 100, "unit": "%"}, {"measurement": "Residual activity (%), pH 10.0", "setting": "[2]; pH 10.0 (10 mM HCl or NaOH), 4h/ 25°C, neutralized to pH 7.0 before antimicrobial assay", "value": 100, "unit": "%"}, {"measurement": "Residual activity (%), pH 12.0", "setting": "[2]; pH 12.0 (10 mM HCl or NaOH), 4h/ 25°C, neutralized to pH 7.0 before antimicrobial assay", "value": "Nil"}, {"measurement": "MIC value, C. acutatum MTCC1037", "setting": "C. acutatum MTCC1037", "value": 35, "unit": "µg/mL"}]}
